Measurements reported in patent US7319089B2, “Maurocalcine, analogues thereof and their therapeutical uses” (priority 2000, dated 2008).
“And” between values parts separate entries of the source, which are not always exact repeats. Identical values can stand only once. “Also recorded” adds a separate entry of the source. Positions of bridges follow the written chain, without caps; N, C: chain ends. Residues, ends and D or L forms follow the SMILES beside them.

Experiments:
[1] = biological target: T1, type 1 ryanodine receptor (RyR1) (Homo sapiens, UniProt P21817); assay type: biochemical; design: sMCa-modified channels blocked by ruthenium red: dose or concentration left out as unconfirmed; conditions: for reversibility of the induced subconductance states on perfusion of the cis chamber: channel modified by sMCa and ryanodine, trace 5
T1 construct: from tissue; host or cells: sarcoplasmic reticulum (SR) vesicles
T1 sequence (P21817 whole entry, species assumed, the tested form may be a part): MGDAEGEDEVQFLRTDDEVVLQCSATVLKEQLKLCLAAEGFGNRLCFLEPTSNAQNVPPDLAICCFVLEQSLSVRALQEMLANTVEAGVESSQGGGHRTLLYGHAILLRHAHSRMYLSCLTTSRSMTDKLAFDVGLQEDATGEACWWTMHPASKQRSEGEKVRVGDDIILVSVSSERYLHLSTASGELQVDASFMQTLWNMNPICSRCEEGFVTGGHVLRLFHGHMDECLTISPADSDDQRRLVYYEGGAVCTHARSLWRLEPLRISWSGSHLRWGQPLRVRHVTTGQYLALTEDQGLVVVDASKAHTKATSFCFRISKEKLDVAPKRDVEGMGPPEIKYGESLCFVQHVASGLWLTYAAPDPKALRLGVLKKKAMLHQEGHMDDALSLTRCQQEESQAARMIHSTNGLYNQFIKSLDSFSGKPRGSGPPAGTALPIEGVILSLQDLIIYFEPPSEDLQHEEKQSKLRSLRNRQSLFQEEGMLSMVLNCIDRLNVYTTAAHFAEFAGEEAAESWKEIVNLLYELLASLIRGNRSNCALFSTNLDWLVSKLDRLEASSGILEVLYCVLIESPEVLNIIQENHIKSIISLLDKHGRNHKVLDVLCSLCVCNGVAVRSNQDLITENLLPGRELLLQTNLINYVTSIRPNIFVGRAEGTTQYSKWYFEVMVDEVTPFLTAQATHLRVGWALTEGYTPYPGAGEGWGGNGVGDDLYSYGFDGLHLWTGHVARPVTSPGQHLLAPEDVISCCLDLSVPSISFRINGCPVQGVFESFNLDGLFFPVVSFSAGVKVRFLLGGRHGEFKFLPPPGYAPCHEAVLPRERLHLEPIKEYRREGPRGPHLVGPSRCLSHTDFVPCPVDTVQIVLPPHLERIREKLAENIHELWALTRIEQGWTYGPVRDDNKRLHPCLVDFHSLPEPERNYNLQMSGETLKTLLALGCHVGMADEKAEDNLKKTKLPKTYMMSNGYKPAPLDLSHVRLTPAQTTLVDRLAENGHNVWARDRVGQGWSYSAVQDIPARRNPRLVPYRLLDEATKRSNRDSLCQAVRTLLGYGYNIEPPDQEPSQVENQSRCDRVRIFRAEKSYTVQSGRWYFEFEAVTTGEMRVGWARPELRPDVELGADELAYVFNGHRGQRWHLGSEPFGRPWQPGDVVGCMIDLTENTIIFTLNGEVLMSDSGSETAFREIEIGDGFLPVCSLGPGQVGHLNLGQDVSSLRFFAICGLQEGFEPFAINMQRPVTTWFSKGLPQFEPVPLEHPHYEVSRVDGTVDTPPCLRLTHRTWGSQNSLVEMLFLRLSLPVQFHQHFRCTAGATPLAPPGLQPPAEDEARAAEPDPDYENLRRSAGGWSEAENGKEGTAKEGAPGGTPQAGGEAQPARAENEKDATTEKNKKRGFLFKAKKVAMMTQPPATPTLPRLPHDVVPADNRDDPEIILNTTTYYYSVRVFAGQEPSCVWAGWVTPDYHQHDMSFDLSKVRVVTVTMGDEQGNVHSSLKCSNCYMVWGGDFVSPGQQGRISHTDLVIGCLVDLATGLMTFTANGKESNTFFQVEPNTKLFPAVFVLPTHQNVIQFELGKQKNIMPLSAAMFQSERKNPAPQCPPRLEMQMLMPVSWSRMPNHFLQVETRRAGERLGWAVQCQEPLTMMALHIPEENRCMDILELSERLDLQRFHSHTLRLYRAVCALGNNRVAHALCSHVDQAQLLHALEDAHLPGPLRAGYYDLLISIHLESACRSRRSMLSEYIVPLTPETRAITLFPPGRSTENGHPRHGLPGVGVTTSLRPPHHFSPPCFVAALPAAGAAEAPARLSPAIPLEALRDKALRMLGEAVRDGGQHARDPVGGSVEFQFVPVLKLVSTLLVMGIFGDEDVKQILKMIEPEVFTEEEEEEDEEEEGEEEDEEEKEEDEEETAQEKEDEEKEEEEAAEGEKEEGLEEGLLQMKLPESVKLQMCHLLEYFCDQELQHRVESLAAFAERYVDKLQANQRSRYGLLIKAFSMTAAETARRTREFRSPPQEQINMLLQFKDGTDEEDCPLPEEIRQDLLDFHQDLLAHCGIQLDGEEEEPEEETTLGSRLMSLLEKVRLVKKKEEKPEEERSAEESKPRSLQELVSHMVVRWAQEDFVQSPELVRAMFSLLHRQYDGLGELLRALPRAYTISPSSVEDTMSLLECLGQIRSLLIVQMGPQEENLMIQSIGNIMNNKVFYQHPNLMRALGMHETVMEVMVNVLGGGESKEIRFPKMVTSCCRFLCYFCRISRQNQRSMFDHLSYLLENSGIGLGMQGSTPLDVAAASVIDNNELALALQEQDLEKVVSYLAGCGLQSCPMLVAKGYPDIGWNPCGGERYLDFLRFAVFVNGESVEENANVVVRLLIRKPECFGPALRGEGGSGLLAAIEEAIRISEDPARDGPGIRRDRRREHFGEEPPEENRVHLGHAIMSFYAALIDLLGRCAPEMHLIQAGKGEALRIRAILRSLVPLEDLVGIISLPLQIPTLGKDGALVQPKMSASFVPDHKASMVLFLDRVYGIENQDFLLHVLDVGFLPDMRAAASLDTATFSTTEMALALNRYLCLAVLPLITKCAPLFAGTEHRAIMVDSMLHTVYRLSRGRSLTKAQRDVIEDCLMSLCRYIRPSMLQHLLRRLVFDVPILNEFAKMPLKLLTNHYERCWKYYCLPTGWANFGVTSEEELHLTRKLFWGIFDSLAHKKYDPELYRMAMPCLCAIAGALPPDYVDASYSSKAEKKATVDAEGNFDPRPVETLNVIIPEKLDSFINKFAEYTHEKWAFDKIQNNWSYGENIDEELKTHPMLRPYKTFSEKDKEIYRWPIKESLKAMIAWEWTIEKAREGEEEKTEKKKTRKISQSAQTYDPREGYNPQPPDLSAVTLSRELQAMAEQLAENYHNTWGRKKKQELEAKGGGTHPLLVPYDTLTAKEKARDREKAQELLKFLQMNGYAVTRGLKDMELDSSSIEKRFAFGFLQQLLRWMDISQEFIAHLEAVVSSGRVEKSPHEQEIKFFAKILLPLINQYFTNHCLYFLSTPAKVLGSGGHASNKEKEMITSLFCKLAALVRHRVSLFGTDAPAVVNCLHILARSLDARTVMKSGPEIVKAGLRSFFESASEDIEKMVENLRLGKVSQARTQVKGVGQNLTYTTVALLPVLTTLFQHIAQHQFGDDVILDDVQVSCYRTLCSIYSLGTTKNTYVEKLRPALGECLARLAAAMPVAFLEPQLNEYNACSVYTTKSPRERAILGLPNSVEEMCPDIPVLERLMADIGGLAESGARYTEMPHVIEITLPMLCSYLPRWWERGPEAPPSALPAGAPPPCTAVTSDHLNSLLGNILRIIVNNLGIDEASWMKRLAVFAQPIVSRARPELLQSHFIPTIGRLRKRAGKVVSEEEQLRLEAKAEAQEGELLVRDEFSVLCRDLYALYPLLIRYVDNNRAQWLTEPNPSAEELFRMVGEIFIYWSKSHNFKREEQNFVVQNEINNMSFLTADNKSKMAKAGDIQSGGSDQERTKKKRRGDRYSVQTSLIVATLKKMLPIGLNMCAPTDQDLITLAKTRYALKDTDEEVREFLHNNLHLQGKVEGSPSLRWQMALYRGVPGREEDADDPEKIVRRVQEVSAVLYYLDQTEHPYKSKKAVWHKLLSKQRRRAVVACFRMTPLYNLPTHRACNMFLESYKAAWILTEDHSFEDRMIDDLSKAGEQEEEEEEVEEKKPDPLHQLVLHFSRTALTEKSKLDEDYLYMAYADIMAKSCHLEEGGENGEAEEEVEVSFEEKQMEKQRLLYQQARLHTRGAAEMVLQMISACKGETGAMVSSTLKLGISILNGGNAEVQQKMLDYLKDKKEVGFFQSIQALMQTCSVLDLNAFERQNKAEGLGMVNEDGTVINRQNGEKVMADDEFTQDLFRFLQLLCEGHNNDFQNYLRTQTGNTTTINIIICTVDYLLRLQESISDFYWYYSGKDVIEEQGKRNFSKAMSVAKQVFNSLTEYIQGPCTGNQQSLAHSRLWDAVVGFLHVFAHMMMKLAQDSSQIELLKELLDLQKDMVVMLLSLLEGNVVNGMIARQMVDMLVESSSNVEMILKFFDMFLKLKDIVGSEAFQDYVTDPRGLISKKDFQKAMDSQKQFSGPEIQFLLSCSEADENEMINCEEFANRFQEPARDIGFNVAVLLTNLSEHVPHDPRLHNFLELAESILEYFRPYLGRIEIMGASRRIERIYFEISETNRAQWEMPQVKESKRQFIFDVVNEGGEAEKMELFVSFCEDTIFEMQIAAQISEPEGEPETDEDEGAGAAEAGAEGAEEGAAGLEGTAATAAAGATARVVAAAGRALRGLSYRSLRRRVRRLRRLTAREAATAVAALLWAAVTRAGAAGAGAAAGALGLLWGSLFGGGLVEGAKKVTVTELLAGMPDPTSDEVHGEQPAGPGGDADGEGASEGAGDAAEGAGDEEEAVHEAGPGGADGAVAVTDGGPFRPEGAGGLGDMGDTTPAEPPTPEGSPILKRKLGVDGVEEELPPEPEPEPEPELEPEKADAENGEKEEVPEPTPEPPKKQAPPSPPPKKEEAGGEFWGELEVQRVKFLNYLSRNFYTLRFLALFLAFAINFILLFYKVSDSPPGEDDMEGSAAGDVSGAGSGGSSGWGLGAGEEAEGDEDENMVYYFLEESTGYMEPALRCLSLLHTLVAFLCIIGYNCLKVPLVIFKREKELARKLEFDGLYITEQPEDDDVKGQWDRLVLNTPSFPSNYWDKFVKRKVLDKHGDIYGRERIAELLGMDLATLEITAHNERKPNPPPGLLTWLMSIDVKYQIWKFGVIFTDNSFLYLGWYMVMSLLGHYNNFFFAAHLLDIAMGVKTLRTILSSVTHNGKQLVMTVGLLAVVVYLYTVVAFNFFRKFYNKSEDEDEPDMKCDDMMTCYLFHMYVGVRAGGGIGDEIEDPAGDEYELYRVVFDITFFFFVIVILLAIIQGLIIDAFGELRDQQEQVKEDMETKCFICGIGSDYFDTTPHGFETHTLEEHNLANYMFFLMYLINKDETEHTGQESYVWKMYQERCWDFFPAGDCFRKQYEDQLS
Method: Single-channel recording: Cs^+ current through single RyR1 channels incorporated into planar lipid bilayers (BLM) was measured in an asymmetric CsCl (10:1 cis:trans) solution. The BLM was formed from a mixture of phosphatidylethanolamine and phosphatidylcholine (5:2, w/w) at 30-50 mg/ml in decane, across a […] aperture in a 1.0 ml polystyrene cup. SR vesicles were added to the cis side of chamber at a final concentration of 0.1-10 mg/ml. The cis solution contained 500 mM CsCl, ˜7 mM CaCl2, 20 mM HEPES, pH 7.4, and the trans solution contained 50 mM CsCl, 7 mM free Ca^2+, 20 mM HEPES, pH 7.4. The monovalent cation Cs^+ was used as permeant ion instead of divalent cations (such as Ca^2+) owing to its better permeability through RyR1. After a single fusion event, sarcoplasmic reticulum (SR) vesicles in cis chamber were quickly removed by perfusion with 9× volume of is solution. Single-channel current was measured under voltage clamp using a Dagan 3900 amplifier (Dagan Instruments, Minneapolis, Minn.). Holding potentials were with respect to the trans (ground) chamber, and positive current was defined as current flowing from cis to trans. Current signals were captured at 10 kHz and filtered at 1 kHz using a four pole Bessel filter. Data was digitized with a Digidata 1200 interface (Axon Instruments, Burlingame, Calif.) and stored on computer for subsequent analysis. Unless otherwise stated, test chemicals were sequentially added to the cis solution after an initial period of recording control channel behaviour. Single channel activity was analyzed with pCLAMP 7.0 (Axon Instruments). Current levels were analyzed by mean-variance analysis and peaks in the all-points amplitude histogram were fitted with Gaussian functions. The all-points amplitude histograms were constructed from selected segments-of data 20-150 sec in length to quantify the incidence of full and subconductance states.
To test this hypothesis, we performed electrophysiological experiments on single RyR1 channels incorporated into planar lipid bilayers.

mice = assay: Lethality after intracerebroventricular injection in mice
[2] = biological target: T1, type 1 ryanodine receptor (RyR1); conditions: comparison with sMCa; cited from earlier work
[3] = sMCa and ryanodine (1 μM) both present

Molecule: N.N.N.N.N.N.N.N.N.N.N.N.N.N.[Cl-].[Cl-].[Cl-].[Cl-].[Cl-].[Cl-].[O-2].[O-2].[Ru+3].[Ru+3].[Ru+4] [ruthenium red, reference compound]
- block of the ryanodine/sMCa modified channel [1]: completely blocked
- sMCa-modified channels blocked by ruthenium red ([1]; ruthenium red): Five out of six channels

Molecule: CC[C@H](C)[C@@H]1NC(=O)[C@H](CC(N)=O)NC(=O)[C@H]([C@@H](C)O)NC(=O)CNC(=O)[C@H](CCCNC(=N)N)NC(=O)[C@H](CCCNC(=N)N)NC(=O)[C@H](CCCCN)NC(=O)[C@@H]2CSSC[C@@H]3NC(=O)[C@H](CC(C)C)NC(=O)[C@H](CCCCN)NC(=O)[C@H](CC(C)C)NC(=O)[C@H](Cc4c[nH]cn4)NC(=O)[C@@H]4CCCN4C(=O)[C@H](CC(C)C)NC(=O)[C@@H](NC(=O)[C@H](CC(=O)O)NC(=O)CN)CSSC[C@H](NC(=O)[C@H](CSSC[C@@H](C(=O)N[C@@H](CCCNC(=N)N)C(=O)O)NC(=O)[C@H](CCCNC(=N)N)NC(=O)[C@H](CCCCN)NC(=O)[C@H](CCC(=O)O)NC1=O)NC(=O)[C@H](CC(=O)O)NC(=O)[C@H](CCCCN)NC(=O)[C@H](CC(N)=O)NC(=O)[C@H](CCC(=O)O)NC(=O)[C@H](CCCCN)NC3=O)C(=O)N[C@@H](CO)C(=O)N[C@@H](CCCCN)C(=O)N[C@@H](CCCCN)C(=O)N2 [sMCa, maurocalcine] (H-GDCLPHLKLCKENKDCCSKKCKRRGTNIEKRCR-OH; disulfide 3-17, 10-21, 16-32)
- reversibility of the induced subconductance states on perfusion of the cis chamber [1]: reversed the sMCa-induced quarter states
- effect on RyR1 channel gating, toxin applied on the cis (cytoplasmic) side ([1]; nanomolar concentration (5 nM to 1 μM), cis chamber): dramatically modified the channel gating behavior; also recorded: potently and reversibly modifies channel gating behaviour; also recorded: potently activates RyR1 channels
- minor subconductance induced, fraction of the full conductance level ([1]; sMCa alone, cis, to a smaller extent): one-quarter
- predominant subconductance induced, fraction of the characteristic full conductance ([1]; sMCa alone, cis, traces 1-3): one-half
- half subconductance, % of the characteristic control conductance level [1, 3]: ~50.5% and 51%
- quarter subconductance, % of the characteristic control conductance level [1, 3]: ~29.3% and 29%
- effect on RyR1, toxin applied on the trans (luminal) side ([1]; trans side): No effect
- LD50 (mice): 20 μg per mouse

Molecule: Imperatoxin A (GDCLPHLKRCKADNDCCGKKCKRRGTNAEKRCR; UniProt P59868 1-33, looked up) [IpTx A]
- conductance state of RyR1 favoured [2]: ⅓

Molecule: ryanodine [reference compound]
- reversibility of the induced subconductance states on perfusion of the cis chamber [1]: ryanodine-mediated half-states persisted
- sMCa-modified channels subsequently modified by ryanodine ([1]; ryanodine 1 μM): Four out of five channels
